Data: patent publication US20230285405A1, “Pharmaceuticals for Treating or Preventing Nidoviruses and Picornaviruses” (priority 2020, published 2023)
Counter-ions that a name gives are not always drawn. Like-named read-outs stand apart in the source and are kept apart here.

Columns and labels:
OC43 = assay: Drug screening: OC43 nucleoprotein staining in infected A549-mRuby cells; assay type: cell-based, human beta coronavirus OC43; details: for activity at 10 µM: Betacoronavirus 1, OC43, 96 h
Procedure: A549-mRuby cells were seeded (3,000 cells per well) in nine 384-well plates using Multidrop combi. Cells were seeded in a final volume of 30 μl with DMEM+10% BCS. The following day, 20 μl of OC43 were added (MOI 0.3) and incubated at 33° C., 5% CO2 for 1 hour. 50 nl from the Selleck FDA-approved drug library (cat #L1300, Selleck) were added (1:1,000 dilution). Two columns (32 wells) were left uninfected and two columns were treated with DMSO and virus (no drug control). Cells were imaged using the IncuCyte S3 to measure cell numbers at day 0. Cells were incubated for 4 days at 33° C., 5% CO2 and were stained for OC43 nucleoprotein. All the following steps were performed at room temperature. Cells were fixed in 50 μl 4% PFA/PBS for 15 min, blocked with 50 μl 10% BSA+0.5% Triton X-100 in PBS for 30 minutes, stained with 50 μl anti-OC43 (cat #MAB9013, Milipore) diluted 1:2,000 in 2% BSA+0.1% Triton X-100 in PBS for 1 hour, washed with 50 μl PBS three times, stained with anti-mouse-AlexaFluor488 diluted 1:1,000 in 2% BSA+0.1% Triton X-100 in PBS for 1 hour, washed with 50 μl PBS three times and imaged on the IncuCyte S3 (day 4). The screen was performed twice.
(§1) The following parameters were extracted from the images: number of cells at day 0, number of cells at day 4 and total OC43 staining intensity at day 4. For analysis, OC43 staining intensity was normalized to the number of cells in the well and further normalized to the mean of the no drug controls, which was set to 100. […] For each plate, a drug was considered as a putative hit if it reduced OC43 staining by over 3 standard deviations from the mean of the no drug controls. Drugs were considered hits if they were not toxic and reduced OC43 staining by over 3 standard deviations in both repeats.
(§2) A library of 1,900 clinically used drugs was screened, the drugs either approved for human use or having extensive safety data in humans (Phase 2 or 3 clinical trials), for their ability to inhibit OC43 infection of the human lung epithelial cell line A549 (expressing an H2B-mRuby nuclear reporter). One day after plating, cells were infected at an MOI of 0.3, incubated at 33° C. for 1 hour and drugs were added to a final concentration of 10 μM. Cells were then incubated at 33° C. for 4 days, fixed and stained for the presence of the viral nucleoprotein. The cells were imaged at day 0 (following drug addition) and day 4 (after staining) to determine the drugs effect on cell growth and OC43 infection.

A549-mRuby cells = assay: Drug screening: effect on cell growth (cell number day 4 / day 0); details: 10 μM drug; for Growth_1: number of cells at day 4 divided by number of cells at day 0 / toxic_1: repeat #1; for Growth_2: number of cells at day 4 divided by number of cells at day 0 / toxic_2: repeat #2
Procedure: A549-mRuby cells were seeded (3,000 cells per well) in nine 384-well plates using Multidrop combi. Cells were seeded in a final volume of 30 μl with DMEM+10% BCS. The following day, 20 μl of OC43 were added (MOI 0.3) and incubated at 33° C., 5% CO2 for 1 hour. 50 nl from the Selleck FDA-approved drug library (cat #L1300, Selleck) were added (1:1,000 dilution). Two columns (32 wells) were left uninfected and two columns were treated with DMSO and virus (no drug control). Cells were imaged using the IncuCyte S3 to measure cell numbers at day 0. Cells were incubated for 4 days at 33° C., 5% CO2 and were stained for OC43 nucleoprotein. All the following steps were performed at room temperature. […] The screen was performed twice.
as §1, §2

[1] = 10 μM drug, MOI 0.3, 4 days, OC43 staining normalized to no-drug controls, mean of the two screen repeats, read-out: OC43_mean
[2] = 10 μM drug, MOI 0.3, 4 days, normalized to no-drug controls in the same plate, repeat #1, read-out: OC43_1: % staining of OC43 in screen repeat #1
[3] = 10 μM drug, MOI 0.3, 4 days, normalized to no-drug controls in the same plate, repeat #2, read-out: OC43_2: % staining of OC43 in screen repeat #2

Row | SMILES | hit_1 (OC43; 10 μM drug, repeat #1) | hit_2 (OC43; 10 μM drug, repeat #2) | activity at 10 µM (OC43; [1]) [%] | activity at 10 µM (OC43; [2]) [%] | activity at 10 µM (OC43; [3]) [%] | Growth_1: number of cells at day 4 divided by number of cells at day 0 (A549-mRuby cells) | toxic_1 (A549-mRuby cells) | Growth_2: number of cells at day 4 divided by number of cells at day 0 (A549-mRuby cells) | toxic_2 (A549-mRuby cells) | activity at 10 µM (OC43; read-out: OC43_mean) [%] | activity at 10 µM (OC43; read-out: OC43_1: % staining of OC43 in screen repeat #1) [%] | activity at 10 µM (OC43; read-out: OC43_2: % staining of OC43 in screen repeat #2) [%]
1 | COc1ccccc1OCCNCC(O)COc1cccc2[nH]c3ccccc3c12 (stereo not shown) [Carvedilol] | 1 | 1 | 24.6 | 20.1 | 29.1 | 4.5 | 0 | 3.1 | 0 |  |  | 
2 | CCN(CC)CCCC(C)Nc1ccnc2cc(Cl)ccc12 (stereo not shown) [Chloroquine Phosphate] | 1 | 1 |  | 11.3 | 13.1 |  | 0 |  | 0 | 12.2 |  | 
3 | CCCCOc1cc(C(=O)NCCN(CC)CC)c2ccccc2n1 [Cinchocaine] | 1 | 1 | 41.6 | 18.9 | 64.3 | 4.3 | 0 | 4.2 | 0 |  |  | 
4 | COc1cc(N)c(Cl)cc1C(=O)NC1CCN(CCCOc2ccc(F)cc2)CC1OC (stereo not shown) [Cisapride] | 1 | 1 | 25.3 | 28.5 | 22.1 | 4.1 | 0 | 4.5 | 0 |  |  | 
5 | CN(C)CCCC1(c2ccc(F)cc2)OCc2cc(C#N)ccc21 (stereo not shown) [Citalopram HBr] | 1 | 1 |  | 20.4 | 44.4 | 5.1 | 0 | 5.1 | 0 | 32.4 |  | 
6 | CN(C)CCCN1c2ccccc2CCc2ccc(Cl)cc21.O [Clomipramine HCl] | 1 | 1 |  | 13.9 | 21.6 | 2.6 | 0 | 3.8 | 0 | 17.7 |  | 
7 | CN1CCN(C2=Nc3cc(Cl)ccc3Nc3ccccc32)CC1 [Clozapine] | 1 | 1 | 31.3 | 15.8 | 46.9 | 4.6 | 0 | 4.3 | 0 |  |  | 
8 | CC(C)c1nc(CN(C)C(=O)N[C@@H](CCN2CCOCC2)C(=O)N[C@H](CC[C@H](Cc2ccccc2)NC(=O)OCc2cncs2)Cc2ccccc2)cs1 [Cobicistat (GS-9350), Cobicistat] | 1 | 1 | 21.8 | 23 | 20.7 | 4.9 | 0 | 5.3 | 0 |  |  | 
9 | CN(C)CCC=C1c2ccccc2C=Cc2ccccc21 [Cyclobenzaprine HCl] | 1 | 1 | 46.5 | 45.2 | 47.7 | 3.3 | 0 | 2.1 | 0 |  |  | 
10 | CN1CCC(=C2c3ccccc3C=Cc3ccccc32)CC1 [Cyproheptadine HCl] | 1 | 1 | 27 | 22.8 | 31.2 | 3.8 | 0 | 3.0 | 0 |  |  | 
11 | CC(C)(C)c1nc(-c2cccc(NS(=O)(=O)c3c(F)cccc3F)c2F)c(-c2ccnc(N)n2)s1 [Dabrafenib (GSK2118436), Dabrafenib] | 1 | 1 | 41.6 | 36.3 | 47 | 3.9 | 0 | 5.5 | 0 |  |  | 
12 | CN[C@H]1C(=O)N[C@@H]2Cc3ccc(cc3)Oc3cc4cc(c3O[C@@H]3O[C@H](C(=O)O)[C@@H](O)[C@H](O)[C@H]3NC(=O)CCCCCCCCC(C)C)Oc3ccc(cc3Cl)[C@@H](O)[C@@H]3NC(=O)[C@H](NC(=O)[C@@H]4NC(=O)[C@@H](NC2=O)c2cc(cc(O)c2Cl)Oc2cc1ccc2O)c1ccc(O)c(c1)-c1c(O[C@H]2O[C@H](CO)[C@@H](O)[C@H](O)[C@@H]2O)cc(O)cc1[C@@H](C(=O)NCCCN(C)C)NC3=O [Dalbavancin] | 1 | 1 |  |  |  | 5.8 | 0 | 6.2 | 0 | 32.5 | 25.7 | 39.2
13 | NC(=O)C(c1ccccc1)(c1ccccc1)[C@@H]1CCN(CCc2ccc3c(c2)CCO3)C1 [Darifenacin HBr] | 1 | 1 | 24.7 | 14.6 | 34.8 | 5.2 | 0 | 3.4 | 0 |  |  | 
